Several values for one entry are separate records, joined by “and”; a condition that tells them apart may be missing. Equal values may be shown once. Peptide text beside a SMILES is read from it.
Experiments:
transgenic G1H mice = assay: Effect of NAALADase inhibitors on onset of ALS (FALS transgenic mice); assay type: in vivo
Description: The effect of NAALADase inhibitors on the onset of ALS was tested using the transgenic mice model of familial amyotrophic lateral sclerosis (FALS), which is detailed in Gurney, M., Annals of Neurology (1996) 39:147–157, and otherwise well known in the art. One month old transgenic G1H mice were treated with daily intraperitoneal injections of a vehicle (50 mM HEPES-buffered saline) or a NAALADase inhibitor (50 mg/kg Compound A). Clinical symptoms of the mice were monitored daily. The onset of clinical disease was scored by examining each mouse for its shaking of limbs when suspended in the air by its tail, cross spread of spinal reflexes, hindlimb paralysis, body weight and wheel running activity.

[1] = tested on: STZ-induced diabetic rats; assay: Neuropathic pain in STZ model (Hargreaves thermal nociception); assay type: in vivo, Sprague-Dawley rats; settings: 10 mg/kg i.p. daily, treatment started 45 days post-STZ
Description: Male Sprague-Dawley rats (200–225 g) were rendered diabetic by intravenous administration of streptozotocin (“STZ”, 70 mg/kg in phosphate buffered saline). Diabetic animals were divided into five groups: one group receiving Compound A (10 mg/kg or 1 mg/kg), Compound D (10 mg/kg or 1 mg/kg) or vehicle. Another group of animals (non-STZ treated) served as non-diabetic controls. Drug/vehicle treatment was started in diabetic animals 45 days post-STZ administration. STZ-induced diabetic rats were tested for sensitivity to a heat source as soon as blood glucose levels rose to 320 mg/dl or above (30 days post STZ). The rats were then acclimated to a Hargreaves apparatus and thermal nociception was monitored using an infrared heat source directed into the dorsal surface of the hindpaw, and the time taken for the animal to remove its paw noted to the nearest 0.1 seconds (see Hargreaves et al., supra, for detailed experimental method). The intensity of the beam source was adjusted such that the mean latency for control animals (non-STZ treated) was approximately 10 seconds. Each animal was tested 8 times and the mean difference score (between mean non-diabetic control latency and mean diabetic latency) are graphically presented in FIGS. 7A and 7B.

[2] = tested on: rats with unilaterally transected optic nerve; assay: Optic nerve transection (optic nerve fiber counting); assay type: in vivo, Rattus norvegicus; settings: for remaining axons relative to the saline-treated rats: 2 weeks after transection; for FIBER NUMBER / PERCENT DIFFERENCE (fiber number between transected eye and normal eye): 10 mg/kg i.p. daily
Description: (§1) All experiments complied with the Association for Research in Vision and Ophthalmology Statement for the Use of Animals in Ophthalmic and Vision Research. 82 male Brown Norway rats (Rattus norvegicus), each weighing approximately 250 gm, were treated using procedures approved by the Animal Care Committee of the Johns Hopkins University School of Medicine. The rats were housed with a 12 hour light/12 hour dark cycle and fed ad libitum.
OPTIC NERVE TRANSECTION: The optic nerve was transected unilaterally in 26 rats under intraperitoneal pentobarbital anesthesia. The conjunctiva was opened with scissors and the optic nerve exposed by traction on extraocular muscles. The transection was performed with microscissors 5 mm posterior to the globe, with specific attention to avoidance of injury to major ocular blood vessels. Immediately after transection, the retina was examined ophthalmoscopically to assure that the retinal arterial blood supply was not disrupted. The conjunctiva was closed with absorbable suture and the eye dressed with antibiotic ointment. Beginning on the day of transection, the rats were treated daily with intraperitoneal injections of either a vehicle (9 rats with 50 mM HEPES-buffered saline) or a NAALADase inhibitor (8 rats with 10 mg/kg of Compound A and 9 rats with 10 mg/kg of Compound B). 5 saline treated rats, 3 Compound A treated rats and 4 Compound B treated rats were sacrificed at 2 weeks, and the remaining rats at 4 weeks, after transection.
(§2) OPTIC NERVE COUNTING: The rats were sacrificed by exsanguination under deep pentobarbital anesthesia. They were perfused through the heart with 2% paraformaldehyde/2% glutaraldehyde in 0.1 M phosphate buffer, pH 7.2, and the eyes with attached optic nerves were removed. A cross-section of the optic nerve from both experimental (glaucoma or transection) and control eyes was removed 1.5 mm posterior to the globe, 1 mm in thickness, and post-fixed in 2% osmium tetroxide in buffer. These were processed into epoxy resin, sectioned at 1 micron and stained with toluidine blue.
(§3) The area of the optic nerve cross-section was measured by outlining its outer border at 10× magnification on an image analysis system (Universal Imaging Corp., Westchester, Pa.) with Synsys digital camera and Metamorph software. Three area measurements were taken and the mean value was determined. To measure the density and fiber diameter distributions, images were captured with a 100× phase contrast objective from 10 different areas of each nerve. These were edited to eliminate non-neural objects and the size of each axon internal to the myelin sheath (its minimum diameter) and the density of axons/square mm were calculated for each image and nerve. The mean density was multiplied by total nerve area to yield fiber number for each nerve. The total fiber number in glaucoma or transection nerves was compared to the normal, fellow eye of each rat to yield a percent loss value. The number of axons counted among the 10 images was an approximately 20% sample of the 80–90,000 axons in normal rat nerves. The person measuring axon number was masked to the protocol conducted on the nerves.

[3] = tested on: rats with unilateral elevation of intraocular pressure; assay: Experimental rat glaucoma (IOP elevation, optic nerve fiber counting); assay type: in vivo; settings: for FIBER NUMBER / PERCENT DIFFERENCE (fiber number between glaucoma and normal eye): 10 mg/kg i.p. daily; for mean percent fiber loss versus saline-treated control groups: at 8 weeks, p=0.05 for Compound A and p=0.02 for Compound B
Description: as §1
EXPERIMENTAL GLAUCOMA: Unilateral elevation of intraocular pressure (“IOP”) was produced in 56 rats by microinjection of hypertonic saline into episcleral veins, following procedures described in Morrison, J. et al., IOVS (March 1998) 39:526–531. Beginning on the day of IOP elevation, the rats were treated daily with intraperitoneal injections of either a vehicle (23 rats with 50 mM HEPES-buffered saline) or a NAALADase inhibitor (11 rats with 10 mg/kg of Compound A and 22 rats with 10 mg/kg of Compound B). 11 saline treated rats, 11 Compound A treated rats and 11 Compound B treated rats were sacrificed at 8 weeks, and the remaining rats at 12 weeks, after initial IOP elevation.
as §2, §3

STZ-diabetic rats = assay: Diabetic neuropathy in STZ model (motor and sensory nerve conduction velocity); assay type: in vivo
Description: Motor and sensory nerve conduction velocity was also measured in STZ-diabetic animals after 4, 8 and 12 weeks of treatment (see De Koning et al., supra, for a description of the experimental method). Briefly, stimulating needle electrodes were inserted close to the sciatic and tibial nerves with recording electrodes being placed subcutaneously over the distal foot muscles, in anesthetized rats.

BB/W diabetic rats = assay: Progression of neuropathic pain and nerve conduction deficits in BB/W model; assay type: in vivo
Description: Male BB/W rats (BRI, Mass) spontaneously develop a cell mediated autoimmune destruction of pancreatic B cells, resulting in onset of insulin-dependent (Type I) diabetes (Guberski 1994). […] This renders them valuable for experimental trials of new compounds for future treatments of this major disorder. In the present study, Compound D and Compound A were examined for their ability to alter the progression of diabetic neuropathy. […] Another group of non-diabetic rats also receiving vehicle were tested. All animals were continuously monitored for body weight, urine volume, blood sugar and glycated haemoglobin. In the first month of the study, all animals were tested for thermal nociception in a Hargreaves apparatus, weekly. After the first month this was done biweekly and then monthly. The testing consists of directing an infrared heat source onto the dorsal surface of the rat hindpaw and noting the time taken for the animal to remove its paw (see Hargreaves et al., supra, for a description of the experimental method). Each animal was tested 8 times and the mean withdrawal latency noted.
Nerve conduction velocity was also measured every two weeks through the first eight weeks of treatment and every month thereafter through to the six months of treatment (see De Koning et al., Peptides, Vol. 8, No. 3, pp. 415–22 (1987) for a description of the experimental method). […] This was apparent starting at 8 weeks of treatment and persisted to a similar degree through to the six month termination point of the study.

[4] = tested on: transgenic HD mice of the N171–82Q strain; assay: Huntington's disease transgenic mouse model, behavioral testing (rotarod, locomotion); assay type: in vivo; settings: FIG. 42
Description: Transgenic HD mice of the […]-[…] strain and non-transgenic littermates were treated with NAALADase inhibitor Compound B (30 mg/kg) or a vehicle from 10 weeks of age. The mice were placed on a rotating rod (“rotarod”). The length of time at which the mouse fell off the rotarod was recorded as a measure of motor coordination. […] The treatment with Compound B had no effect on the rotarod performance of normal non-HD mice. The total distance traveled by the mice was also recorded as a measure of overall locomotion.

[5] = tested on: transgenic HD mice (N171–82Q); assay: Huntington's disease transgenic mouse model, survival; assay type: in vivo
Description: The effects of Compound B and vehicle on the survival of transgenic HD mice (N171–82Q) were evaluated. Thirteen mice (six male and seven female) were assigned to the Compound B treatment group, and fourteen mice (six male and eight female) were assigned to the vehicle treatment group. Treatment was continued until all the mice died.

NAALADase = target: T1, NAALADase (Homo sapiens, UniProt Q04609); settings: NAAG as substrate; cited from earlier work
T1 construct: 100 μL tissue; from tissue; host or cells: unspecified tissue
T1 sequence (Q04609 whole entry): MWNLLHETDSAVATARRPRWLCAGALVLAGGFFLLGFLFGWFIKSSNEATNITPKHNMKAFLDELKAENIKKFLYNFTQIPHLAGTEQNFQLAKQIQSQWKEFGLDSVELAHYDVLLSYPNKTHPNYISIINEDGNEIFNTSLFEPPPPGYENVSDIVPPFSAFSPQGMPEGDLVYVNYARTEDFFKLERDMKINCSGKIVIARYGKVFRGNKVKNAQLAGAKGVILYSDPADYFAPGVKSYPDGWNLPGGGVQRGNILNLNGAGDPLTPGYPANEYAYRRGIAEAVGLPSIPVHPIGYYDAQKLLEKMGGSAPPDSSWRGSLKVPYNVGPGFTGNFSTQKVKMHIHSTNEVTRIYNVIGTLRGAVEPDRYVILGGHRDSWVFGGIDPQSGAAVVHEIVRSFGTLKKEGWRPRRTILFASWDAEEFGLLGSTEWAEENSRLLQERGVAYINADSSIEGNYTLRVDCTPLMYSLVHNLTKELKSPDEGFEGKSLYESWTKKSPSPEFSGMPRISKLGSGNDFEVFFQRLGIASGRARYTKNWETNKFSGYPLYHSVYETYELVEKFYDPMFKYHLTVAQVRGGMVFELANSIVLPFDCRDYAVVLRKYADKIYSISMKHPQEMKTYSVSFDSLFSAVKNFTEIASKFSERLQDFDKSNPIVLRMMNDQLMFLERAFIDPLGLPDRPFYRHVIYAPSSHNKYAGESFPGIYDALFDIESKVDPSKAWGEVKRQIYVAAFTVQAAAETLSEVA

[6] = 8 week group, positive value indicates fewer fibers in the glaucoma eye

Structure (SMILES) | remaining axons relative to the saline-treated rats [2] | FIBER NUMBER ([2]; 2 weeks survival) | PERCENT DIFFERENCE (fiber number between transected eye and normal eye) ([2]; 2 weeks survival) | FIBER NUMBER ([2]; 4 weeks survival) | PERCENT DIFFERENCE (fiber number between transected eye and normal eye) ([2]; 4 weeks survival) | FIBER NUMBER ([3]; 8 week group) | PERCENT DIFFERENCE (fiber number between glaucoma and normal eye) [3, 6] | mean percent fiber loss versus saline-treated control groups [3] | other results
O=C(O)CCC(CP(=O)(O)Cc1c(F)c(F)c(F)c(F)c1F)C(=O)O (centres unmarked) [Compound A] | 3 times | 26,426 ± 23,025 | 65.3 ± 30.9% | 13,599 ± 7,868 | 82.4 ± 8.9% | 79156 ± 2436 | −1.82 ± 2.92% | statistically less | DIFFERENCE (disease onset, Compound A treated versus vehicle treated mice) (transgenic G1H mice; 50 mg/kg daily intraperitoneal injections): 32 and 25; DISEASE ONSET FOR COMPOUND A TREATED MICE (transgenic G1H mice; 50 mg/kg daily intraperitoneal injections from one month of age): 221 days and 166 days; hyperalgesic response (withdrawal latency difference score) [1]: completely reversed; motor and sensory nerve conduction velocities (STZ-diabetic rats; 10 mg/kg daily for 4, 8 and 12 weeks, FIGS. 9A and 9B): tended to improve (increase); treatment time after which improvement of motor nerve conduction velocity was significant (STZ-diabetic rats; 10 mg/kg daily, FIG. 9A): 12 weeks; treatment time after which improvement of sensory nerve conduction velocity was significant (STZ-diabetic rats; 10 mg/kg daily, FIG. 9B): 8 weeks; nerve conduction velocity deficits versus diabetic vehicle controls (BB/W diabetic rats; 10 mg/kg daily, from 8 weeks to six months of treatment, FIG. 12): significantly less severe nerve conduction deficits; withdrawal latency versus diabetic vehicle-treated rats (BB/W diabetic rats; 10 mg/kg i.p. daily, starting after 4 weeks and through six months of treatment, FIG. 11): longer withdrawal latencies
O=C(O)CCC(CCCS)C(=O)O (centres unmarked) [Compound B, 2-(3-sulfanylpropyl)pentanedioic acid] | twice | 19,550 ± 11,383 | 75.3 ± 14.8% | 5,162 ± 5,017 | 93.4 ± 6.2% | 80785 ± 2121 | −0.82 ± 2.97% | statistically less | rotarod performance ([4]; normal non-HD mice, 30 mg/kg): no effect; rotarod performance (time on the rotarod) versus vehicle ([4]; transgenic HD mice, 30 mg/kg from 10 weeks of age): stayed longer on the rotarod; survival time versus vehicle treated counterparts ([5]; female mice, p-value=0.03, FIG. 46): significantly prolonged survival time; difference in median survival time versus vehicle treatment group ([5]; p-value=0.07): not statistically significant; median survival time ([5]; transgenic HD mice, male and female, FIG. 44): 184 days; FIBER NUMBER ([3]; 12 week group): 90504 ± 1718; PERCENT DIFFERENCE (fiber number between glaucoma and normal eye) ([3]; 12 week group): −3.21 ± 2.86%
CC(=O)N[C@@H](CC(=O)O)C(=O)N[C@@H](CCC(=O)O)C(=O)O [NAAG, N-acetyl-aspartyl-glutamate] (Ac-Asp-Glu-OH) | – | – | – | – | – | – | – | – | Km (NAALADase): 0.54 µM
